These results are taken from patent US20110118348A1, “Methods of stabilizing latanoprost in an aqueous solution” (SANTEN PHARMACEUTICAL CO., LTD., priority 2002, published 2011).

This series in a line: Stability Test of Latanoprost 1: residual ratio of latanoprost in phosphate buffer at each pH after storage at 60° C. or 70° C. (HPLC). Format: physicochemical. The following applies: for Residual ratio (%): pH 8.0, phosphate buffer. The method, then:
1) Latanoprost (0.0025 g) was weighed out in a 50 ml-beaker, a phosphate buffer (50 ml) having each pH (4.0, 5.0, 5.5, 6.0, 6.25, 6.5, 6.7 or 8.0) prepared in advance was added to the beaker, and the mixture was stirred with a magnetic stirrer. The mixture was stirred while warming it in a water bath at about 80° C. for about 30 minutes to dissolve latanoprost. 2) It was confirmed that latanoprost was dissolved, and pH was confirmed. 3) A glass ampoule was charged with each prepared solution (2.5 ml) and sealed by melting it. 4) It was stored at 60° C. or 70° C. 5) Sampling was carried out with time until 28th day after starting storage, latanoprost contents were measured by high performance liquid chromatography, and residual ratios were calculated. Samples having residual ratios of 95% or higher after storage at 60° C. for 28 days and residual ratios of 90% or higher after storage at 70° C. for 28 days were judged to be stable.

Marks after values point to notes of the source that are not given here.

On to `CC(C)OC(=O)CCC/C=C\C[C@@H]1[C@@H](CC[C@@H](O)CCc2ccccc2)[C@H](O)C[C@@H]1O` [latanoprost, isopropyl (Z)-7[(1R,2R,3R,5S)3,5-dihydroxy-2-[(3R)-3-hydroxy-5-phenylpentyl]cyclopentyl]-5-heptanoate], for which the “Residual ratio (%) after storage for 28 days” value worked out at 87.4% (60° C., pH 4.0, phosphate buffer); 98.9% (60° C., pH 5.0, phosphate buffer); 98.0% (60° C., pH 5.5, phosphate buffer); 98.9% (60° C., pH 6.0, phosphate buffer); 95.0% (60° C., pH 6.25, phosphate buffer); 92.4% (60° C., pH 6.5, phosphate buffer). Further, the “Residual ratio (%) after storage for 28 days” value amounted to 93.4% (60° C., pH 6.7, phosphate buffer); 76.7% (70° C., pH 4.0, phosphate buffer); 94.9% (70° C., pH 5.0, phosphate buffer); 94.6% (70° C., pH 5.5, phosphate buffer); 93.1% (70° C., pH 6.0, phosphate buffer); 92.0% (70° C., pH 6.25, phosphate buffer). For the same compound, the “Residual ratio (%) after storage for 28 days” value (70° C., pH 6.5, phosphate buffer) is 82.7%. The “Residual ratio (%)” value reads like this: (60° C., value on 21st day) 30.0* %; (70° C., value on 12th day) 14.1** %.
